Data reported in patent US20230203043A1, “NOVEL IMIDAZOPYRAZINE DERIVATIVES” (Hoffmann-La Roche Inc., priority 2020, published 2023).
Counter-ions that a name gives are not always drawn.

System: Acinetobacter baumannii ATCC17961
Experiment: Antimicrobial susceptibility testing: 90% growth inhibitory concentration (IC90) determination in Iso-Sensitest broth, OD600 growth
Type: cell-based
Conditions: Acinetobacter baumannii, ATCC17961, 16 h, read-out: A. baumannii ATCC 17961 IC90 (uM), strain ATCC 17961, OD600 growth over 16 h
In short: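 Each strain, at about 5×10^(5) CFU/ml, was incubated with twofold dilutions of compound at 35±2° C for 16 h, and IC90 was calculated from kinetic optical density measured at 600 nm during logarithmic growth.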

Compound	IC90
Cc1cc(Nc2nccn3c(-c4cn(C)nc4C(F)(F)F)cnc23)ccc1C(=O)N1CCN(C(=O)[C@H]2C[C@H](O)CN2)CC1 [Example 476, formic acid; [4-[(2R,4S)-4-hydroxypyrrolidine-2-carbonyl]piperazin-1-yl]-[2-methyl-4-[[3-[1-methyl-3-(trifluoromethyl)pyrazol-4-yl]imidazo[1,2-a]pyrazin-8-yl]amino]phenyl]methanone]	2.01 µM
Cc1cc(Nc2nccn3c(-c4cn(C)nc4C(F)(F)F)cnc23)ccc1C(=O)N1CCN(C(=O)[C@@H]2CCNC[C@H]2O)CC1 [Example 477, formic acid; [4-[(3S,4R)-3-hydroxypiperidine-4-carbonyl]piperazin-1-yl]-[2-methyl-4-[[3-[1-methyl-3-(trifluoromethyl)pyrazol-4-yl]imidazo[1,2-a]pyrazin-8-yl]amino]phenyl]methanone]	3.24 µM
Cc1cc(Nc2nccn3c(-c4cn(C)nc4C(F)(F)F)cnc23)ccc1C(=O)N1CCN(C(=O)[C@H]2CCNC[C@@H]2O)CC1 [Example 478, formic acid; [4-[(3R,4S)-3-hydroxypiperidine-4-carbonyl]piperazin-1-yl]-[2-methyl-4-[[3-[1-methyl-3-(trifluoromethyl)pyrazol-4-yl]imidazo[1,2-a]pyrazin-8-yl]amino]phenyl]methanone]	3.46 µM
CCc1cc(Nc2nccn3c(-c4cn(CC#N)nc4C(F)(F)F)cnc23)ccc1C(=O)NCCCNC(=O)[C@@H]1CC[C@H](N)C1 [Example 483, N-(3-((1R,3S)-3-(l2-azaneyl)cyclopentane-1-carboxamido)propyl)-4-((3-(1-(cyanomethyl)-3-(trifluoromethyl)-1H-pyrazol-4-yl)imidazo[1,2-a]pyrazin-8-yl)amino)-2-ethylbenzamide formate]	0.194 µM
CCc1cc(Nc2nccn3c(-c4cn(CC(F)F)nc4C(F)(F)F)cnc23)ccc1C(=O)NCCCNC(=O)[C@H]1CC[C@@H](N)C1 [Example 485, N-(3-((1S,3R)-3-aminocyclopentane-1-carboxamido)propsl)-4-((3-(1-(2,2-difluoroethyl)-3-(trifluoromethyl)-1H-pyrazol-4-yl)imidazo[1,2-a]pyrazin-8-yl)amino)-2-ethylbenzamide formate]	0.189 µM

Same assay, conditions: Acinetobacter baumannii, ATCC17961, 16 h, strain ATCC 17961, OD600 growth over 16 h, read-out: A. baumannii ATCC 17961 IC90

IC90	Compound
1.84 µM	Cc1cc(Nc2nccn3c(-c4c[nH]nc4C(F)(F)F)cnc23)ccc1C(=O)N1CCNCC1 [Example 480, [2-methyl-4-[[3-[3-(trifluoromethyl)-1H-pyrazol-4-yl]imidazo[1,2-a]pyrazin-8-yl]amino]phenyl]-piperazin-1-ylmethanone]
0.117 µM	N#CCn1cc(-c2cnc3c(Nc4ccc(C(=O)N5CCN(C(=O)[C@H]6[C@@H]7CNC[C@@H]76)CC5)c(Cl)c4)nccn23)c(C(F)(F)F)n1 [Example 481, 2-(4-(8-((4-(4-((1R,5S,6r)-3-azabicyclo[3.1.0]hexane-6-carbonyl)piperazine-1-carbonyl)-3-chlorophenyl)amino)imidazo[1,2-a]pyrazin-3-yl)-3-(trifluoromethyl)-1H-pyrazol-1-yl)acetonitrile formate]
0.174 µM	CCc1cc(Nc2nccn3c(-c4cn(CC#N)nc4C(F)(F)F)cnc23)ccc1C(=O)NCCCNC(=O)[C@H]1C[C@@H](N)C1 [Example 482, N-(3-((1s,3s)-3-aminocyclobutane-1-carboxamido)propyl)-4-((3-(1-(cyanomethyl)-3-(trifluoromethyl)-1H-pyrazol-4-yl)imidazo[1,2-a]pyrazin-8-yl)amino)-2-ethylbenzamide formate]
0.154 µM	CCc1cc(Nc2nccn3c(-c4cn(CC#N)nc4C(F)(F)F)cnc23)ccc1C(=O)NCCCNC(=O)[C@H]1CC[C@@H](N)C1 [Example 484, N-(3-((1S,3R)-3-aminocyclopentane-1-carboxamido)propyl)-4-((3-(1-(cyanomethyl)-3-(trifluoromethyl)-1H-pyrazol-4-yl)imidazo[1,2-a]pyrazin-8-yl)amino)-2-ethylbenzamide formate]
0.208 µM	CCc1cc(Nc2nccn3c(-c4cn(CC#N)nc4C(F)(F)F)cnc23)ccc1C(=O)NCCNC(=O)C1CCNCC1 [Example 486, N-(2-(4-((3-(1-(cyanomethyl)-3-(trifluoromethyl)-1H-pyrazol-4-yl)imidazo[1,2-a]pyrazin-8-yl)amino)-2-ethylbenzamido)ethyl)piperidine-4-carboxamide formate]
0.171 µM	CCc1cc(Nc2nccn3c(-c4cn(CC#N)nc4C(F)(F)F)cnc23)ccc1C(=O)NCCNC(=O)[C@H]1C[C@H](N)C1 [Example 487, N-(2-((1r,3r)-3-aminocyclobutane-1-carboxamido)ethyl)-4-((3-(1-(cyanomethyl)-3-(trifluoromethyl)-1H-pyrazol-4-yl)imidazo[1,2-a]pyrazin-8-yl)amino)-2-ethylbenzamide formate]
0.147 µM	CCc1cc(Nc2nccn3c(-c4cn(CC(F)F)nc4C(F)(F)F)cnc23)ccc1C(=O)NCCNC(=O)[C@H]1C[C@H](N)C1 [Example 488, N-(2-((1r,3r)-3-aminocyclobutane-1-carboxamido)ethyl)-4-((3-(1-(2,2-difluoroethyl)-3-(trifluoromethyl)-1H-pyrazol-4-yl)imidazo[1,2-a]pyrazin-8-yl)amino)-2-ethylbenzamide formate]
0.184 µM	CCc1cc(Nc2nccn3c(-c4cn(CC(F)F)nc4C(F)(F)F)cnc23)ccc1C(=O)NCCNC(=O)N1CC[C@H](N)C1 [Example 489, (S)-3-amino-N-(2-(4-((3-(1-(2,2-difluoroethyl)-3-(trifluoromethyl)-1H-pyrazol-4-yl)imidazo[1,2-a]pyrazin-8-yl)amino)-2-ethylbenzamido)ethyl)pyrrolidine-1-carboxamide formate]
0.196 µM	CCc1cc(Nc2nccn3c(-c4cn(CC(F)F)nc4C(F)(F)F)cnc23)ccc1C(=O)NCCNC(=O)[C@@H]1CC[C@@H](N)C1 [Example 490, N-(2-((1R,3R)-3-aminocyclopentane-1-carboxamido)ethyl)-4-((3-(1-(2,2-difluoroethyl)-3-(trifluoromethyl)-1H-pyrazol-4-yl)imidazo[1,2-a]pyrazin-8-yl)amino)-2-ethylbenzamide formate]
0.195 µM	CCc1cc(Nc2nccn3c(-c4cn(CC#N)nc4C(F)(F)F)cnc23)ccc1C(=O)NCCNC(=O)[C@H]1CC[C@H](N)C1 [Example 491, N-(2-((1S,3S)-3-aminocyclopentane-1-carboxamido)ethyl)-4-((3-(1-(cyanomethyl)-3-(trifluoromethyl)-1H-pyrazol-4-yl)imidazo[1,2-a]pyrazin-8-yl)amino)-2-ethylbenzamide formate]
0.2 µM	CCc1cc(Nc2nccn3c(-c4cn(CC(F)F)nc4C(F)(F)F)cnc23)ccc1C(=O)NCCNC(=O)[C@H]1CC[C@H](N)C1 [Example 492, N-(2-((1S,3S)-3-aminocyclopentane-1-carboxamido)ethyl)-4-((3-(1-(2,2-difluoroethyl)-3-(trifluoromethyl)-1H-pyrazol-4-yl)imidazo[1,2-a]pyrazin-8-yl)amino)-2-ethylbenzamide formate]

Compound	IC90
Cc1cc(Nc2nccn3c(-c4c[nH]nc4C(F)(F)F)cnc23)ccc1C(=O)N1CCN(C(=O)[C@@H]2C[C@@H](O)CN2)CC1 [Example 479, [4-[(2S,4R)-4-hydroxypyrrolidine-2-carbonyl]piperazin-1-yl]-[2-methyl-4-[[3-[3-(trifluoromethyl)-1H-pyrazol-4-yl]imidazo[1,2-a]pyrazin-8-yl]amino]phenyl]methanone hydrochloride]	0.624 µM
